Consider 6 molecules from patent publication US4053580A, “Microsealed pharmaceutical delivery device” (G. D. Searle & Co., priority 1975, dated 1977).

Holding throughout (assay type): physicochemical
Data set [1] in a line: Release of pharmaceutical from microsealed silicone delivery device (release rate and kinetics). Particulars: device: 2 parts drug in 2 parts 40% PEG (MW 380-420) in water, Silastic 382 matrix, Silastic tubing. From the text: amount of pharmaceutical released decreases with time and Q - t
Those skilled in the pharmaceutical arts will know how to determine toxic levels of a given pharmaceutical, and the minimum effective dose. With this information a proper dosage form can be prepared by measuring the in vivo rate of elution of a given pharmaceutical by standard analytic tecniques e.g. spectroscopic or radio immunoassay analysis. In vitro diffusion of the pharmaceutical from a delivery device may be determined by the methods of Chien and Lambert, J. Pharm. Sci., 63, 365 (1974) or by methods described in U.S. Pat. No. 3,710,795.
A biologically acceptable silicone polymer matrix containing a pharmaceutical in a hydrophilic solvent system is prepared as follows: […] of ethynodiol diacetate at 37° C. by vigorous agitation for 10 minutes. To this mixture is added 6 parts of liquid silicone polymer of the formula [drawing 5] sold as Silastic® Medical Grade 382 Elastomer by Dow-Corning and this combination is stirred with a mechanical mixer at 1000 rpm for 28 minutes. 0.015 Parts of a cross-linking agent (stannous octanoate is added to the combination and stirring is continued for 2 minutes. The combination is placed in a silicone rubber tubing (I.D. 3.18mm, 0.D. 6.35mm sold by Dow-Corning as Medical Grade Silastic Tubing No. 601-365). This tubing is a silicone polymer of the formula The system is allowed to cross-link for 1 hour and then the tubing is sectioned to provide pharmaceutical delivery devices with the desired amount of pharmaceutical. The ends of the sections may be sealed or left open and additional openings may be made in the walls of the tubing to facilitate higher but still constant rates of release. This device releases 315.6 mcg/cm^2 /day of ethynodiol diacetate. Replacement of the ethynodiol diacetate with 2 parts of one of the following pharmaceuticals provides the indicated release rate: […]

A short description of data set [2]: Solubility of pharmaceutical (Cl) in hydrophilic solvent system at 37° C, 24 h shaking. Particulars: organic solvent or mixture. The method, then: Solubility of a pharmaceutical (Cl) is measured by constant shaking for 24 hours an excess amount of powdered pharmaceutical in 10 ml. of a hydrophilic solvent system at 37° C. The solution is filtered and the content of the pharmaceutical is measured.
(§1) Table I is illustrative of the relation between Cl, Kb, release rate, and kinetics of release of 17α-ethynyl-4-estrene-3β,17β-diol 3,17-diacetate (ethynodiol diacetate) in a hydrophilic solvent system of polyethylene glycol having a molecular weight of about 400.

Data set [3] is described as follows: Release of pharmaceutical from microsealed silicone delivery device (release rate and kinetics). Particulars: for Kinetics of release: Q - t = partition controlled, constant release independent of time.
Data set [4] is described as follows: Partition coefficient (Kb) between hydrophilic solvent system and silicone polymer matrix. How it is done:
Partition coefficient K(b) is measured by immersing a known surface area of biologically acceptable silicone polymer matrix material in a solution of the pharmaceutical in the hydrophilic solvent system with constant shaking for 24 hours and then measuring the amount of pharmaceutical remaining in the solvent system.
Ci = initial concentration of pharmaceutical
Cl = Equilibrium concentration of pharmaceutical
as §1

Each structure is given as a SMILES string.

Turning to `CC(=O)S[C@@H]1CC2=CC(=O)CC[C@]2(C)[C@H]2CC[C@@]3(C)[C@@H](CC[C@@]34CCC(=O)O4)[C@H]12` [7α-acetylthio-17α-(2-carboxyethyl)-17β-hydroxyandrost-4-en-3-one lactone], the Release rate in data set [1] came out at 18.25 mcg/cm^2 /day.

Take `CC(=O)OCC(=O)[C@H]1CC[C@H]2[C@@H]3CCC4=CC(=O)CC[C@]4(C)[C@H]3CC[C@]12C` [Desoxycorticosterone acetate]: in data set [1], the Release rate is reported as 55.1 mcg/cm^2 /day.

For the molecule `Cc1ncc([N+](=O)[O-])n1CCO` [metronidazole], the Release rate in data set [1] was determined as 4.23 mcg/cm^2 /day.

Take `CC(=O)O[C@]1(C(C)=O)CC[C@H]2[C@@H]3CCC4=CC(=O)CC[C@@H]4[C@H]3[C@@H](C)C[C@@]21C` [17α-acetoxy-11β-methyl-19-norpregn-4-ene-3,20-dione]: in data set [1], the Release rate is reported as 51.89 mcg/cm^2 /day.

As to `COC(=O)C1CC2=CC(=O)CCC2(C)C2CCC3(C)C(CCC34CCC(=O)O4)C12` (stereo not drawn) [17-hydroxy-7β-methoxycarbonyl-3-oxo-17α-pregn-4-ene-21-carboxylic acid γ-lactone], the Release rate in data set [1] is recorded as 63.08 mcg/cm^2 /day.

The solubility is the dissolved amount per volume that the medium holds. As for `C#C[C@]1(OC(C)=O)CC[C@H]2[C@@H]3CCC4=C[C@@H](OC(C)=O)CC[C@@H]4[C@H]3CC[C@@]21C` [ethynodiol diacetate, 17α-ethynyl-4-estrene-3β,17β-diol 3,17-diacetate], the solubility at 24 h in data set [2] (30% PEG 400, 37° C) was found to be 64.6 µg/mL; in data set [2] (50% PEG 400, 37° C), 156 µg/mL; in data set [2] (60% PEG 400, 37° C) it was 437 µg/mL; in data set [2] (80% PEG 400, 37° C), 4460 µg/mL; in data set [2] (100% PEG 400, 37° C), 45600 µg/mL. Besides, the “Release rate time dependence with alternative solvent systems” value in data set [3] (1,3-butanediol, propylene glycol, PEG 4000, PEG 6000, Solketal, Medical Fluid 360 solvent systems) is “independent of time”. Besides, the “Release from devices with alternative solvent systems” value in data set [3] (1,3-butanediol, propylene glycol, PEG 4000, PEG 6000, Solketal, Medical Fluid 360 solvent systems, prepared as for PEG 400) was 150 - 275 mcg/cm^2. For the same molecule, the “Rate of Pharmaceutical Release” value in data set [3] (30% PEG 400) stood at 297.8 gm/10^6 cm^2/day; in data set [3] (50% PEG 400), 315.6 gm/10^6 cm^2/day; in data set [3] (60% PEG 400), 319.4 gm/10^6 cm^2/day; in data set [3] (80% PEG 400) it was 1203 gm/10^6 cm^2/day^1/2; in data set [3] (100% PEG 400), 1095 gm/10^6 cm^2/day^1/2. Further, the Kinetics of release entry in data set [3] (30% PEG 400), in data set [3] (50% PEG 400) and in data set [3] (60% PEG 400) was “Q - t” each time. Further, the “Release rate from silicone rubber implantates, relation to time” value in data set [3] (in the absence of microsealed compartments containing a suitable hydrophilic solvent) is reported as “porportional to the square root of time (T^1/2)”. Moreover, the Kb/Cl was 0.355 mL/µg in data set [4] (30% PEG 400); 0.061 mL/µg in data set [4] (50% PEG 400); 0.0078 mL/µg in data set [4] (60% PEG 400); 7.4e-05 mL/µg in data set [4] (80% PEG 400); 7e-07 mL/µg in data set [4] (100% PEG 400). Besides, in data set [1], the Release rate stood at 315.6 mcg/cm^2 /day.
